The subject of one data set is K. pneumoniae Y-4*. The data set is described as follows: MIC, agar dilution, standard method of Japan Society of Chemotherapy. The data set is classed as cell-based. As to conditions: Klebsiella pneumoniae. How it is done: (§1) According to the standard method of Japan Society of Chemotherapy [CHEMOTHERAPY, 29 (1), 76-79 (1981)], a bacteria solution obtained by culturing in Heart Infusion broth (manufactured by Eiken Kagaku) at 37° C. for 20 hours was inoculated onto a Heart Infusion agar containing a drug and cultured at 37° C. for 20 hours, after which the growth of the bacteria was observed, to determine the minimum concentration at which the growth of the bacteria was inhibited as MIC (μg/ml). The amount of the inoculated bacteria was 10^4 cells/plate (10^6 cells/ml).
(§2) The asterisk in Table 1 means β-Lactamase-producing bacteria.
A general note: Agar dilution tests growth on a series of plates holding different concentrations.

A further data set has as its system P. aeruginosa GN-918*. Described as above. The data set is classed as cell-based. To be noted: Pseudomonas aeruginosa. How it is done:
as §1, §2

For another data set, the system named is P. mirabilis T-111. The data set is described as above. In kind it is cell-based. As to conditions: Proteus mirabilis, T111, Heart Infusion agar, 37° C., 20 hours, 10^4 cells/plate (10^6 cells/ml). How it is done:
as §1

The subject of a further data set is M. morganii T-216. Described as above. In kind it is cell-based. As to conditions: Morganella morganii, T216, Heart Infusion agar, 37° C., 20 hours, 10^4 cells/plate (10^6 cells/ml). How it is done:
as §1

Another data set concerns E. coli NIHJ. The data set is described as above. In kind it is cell-based. As to conditions: Escherichia coli, Heart Infusion agar, 37° C., 20 hours, 10^4 cells/plate (10^6 cells/ml). How it is done: as §1
For the next data set, the system named is C. freundii N-7. The description is as above. The data set is classed as cell-based. As to conditions: Citrobacter freundii. As for the experimental part:
as §1

A further data set relates to E. coli TK-111. The data set is described as above. To be noted: Escherichia coli, TK111, Heart Infusion agar, 37° C., 20 hours, 10^4 cells/plate (10^6 cells/ml). In kind it is cell-based. How it is done:
as §1

The subject of the next data set is S. marcescens W-134. The description is as above. As to conditions: Serratia marcescens, W134, Heart Infusion agar, 37° C., 20 hours, 10^4 cells/plate (10^6 cells/ml). In kind it is cell-based. As for the experimental part:
as §1

Data set [1] in a line: Acute toxicity, intravenous, mice. As to conditions: mouse, in vivo, ICR strain male mice, 22±1 g, in 0.1N aqueous sodium hydroxide, read-out: 50% lethal dosage (LD50). How it is done: A test compound was intravenously administered to a group of three ICR strain male mice each weighing 22±1 g to investigate the acute toxicity.
The test compound was dissolved in a 0.1N aqueous sodium hydroxide solution, and the resulting solution was applied.

Where [2] appears, read: GN918, P. aeruginosa GN-918, β-Lactamase-producing, Heart Infusion agar, 37° C., 20 hours, 10^4 cells/plate (10^6 cells/ml), read-out: MIC.
Setting [3] is: K. pneumoniae Y-4, β-Lactamase-producing, Heart Infusion agar, 37° C., 20 hours, 10^4 cells/plate (10^6 cells/ml), read-out: MIC.
[4] abbreviates: N7, C. freundii N-7, Heart Infusion agar, 37° C., 20 hours, 10^4 cells/plate (10^6 cells/ml), read-out: MIC.

The structures appear in SMILES notation. ≈ marks a conversion by molar mass, not a printed value. Where a name gives a salt, the structure may show the parent alone. Read-outs that look alike come from different tables or passages of the source.

`CC1COc2c(N3CCN(C)CC3)c(F)cc3c(=O)c(C(=O)O)cn1c23` (racemic) [Control compd., (±)9-Fluoro-2,3-dihydro-3-methyl-10-(4-methyl-1-piperazinyl)-7-oxo-7H-pyrido[1,2,3-de][1,4]benzoxazine-6carboxylic acid, reference compound]: the MIC was 0.39 µg/mL (≈ 1.08 µM) with K. pneumoniae Y-4* (20 h); 3.13 µg/mL (≈ 8.66 µM) in the data set with P. aeruginosa GN-918* (setting [2]); 0.39 µg/mL (≈ 1.08 µM) against P. mirabilis T-111; 0.1 µg/mL (≈ 0.277 µM) against M. morganii T-216; no more than 0.05 µg/mL in the data set with E. coli NIHJ; 0.39 µg/mL (≈ 1.08 µM) in the data set with C. freundii N-7 (N7, 20 h). In addition, the MIC in the data set on E. coli TK-111 is no more than 0.05 µg/mL; against S. marcescens W-134, 0.2 µg/mL (≈ 0.553 µM).

On to `CC1COc2c(C3(N)CC3)c(F)cc3c(=O)c(C(=O)O)cn1c23.Cl` (stereo not shown) [Test Compound 1, 10-(1-Aminocyclopropyl)-9-fluoro-3-methyl-7-oxo-2,3-dihydro-7H-pyrido[1,2,3-de][1,4] benzoxazine-6carboxylic acid hydrochloride], for which the MIC in the data set with K. pneumoniae Y-4* (setting [3]) was 0.2 µg/mL; with P. aeruginosa GN-918* (setting [2]), 0.2 µg/mL; with P. mirabilis T-111, 0.1 µg/mL; against M. morganii T-216, no more than 0.05 µg/mL; against E. coli NIHJ, no more than 0.05 µg/mL; in the data set with C. freundii N-7 (setting [4]) it was no more than 0.05 µg/mL. Moreover, the MIC in the data set on E. coli TK-111 is no more than 0.05 µg/mL; in the data set with S. marcescens W-134 it was 0.1 µg/mL.

Regarding `CC1COc2c(C3(N)CC3)c(F)c(N)c3c(=O)c(C(=O)O)cn1c23.Cl` (stereo not shown) [Test Compound 2, 8-Amino-10-(1-aminocyclopropyl)-9-fluoro-3-methyl-7-oxo-2,3-dihydro-7H-pyrido[1,2,3-de][1,4]-benzoxazine-6-carboxylic acid hydrochloride], the MIC was 0.39 µg/mL against K. pneumoniae Y-4* (20 h); 0.78 µg/mL in the data set on P. aeruginosa GN-918* (setting [2]); 0.39 µg/mL in the data set with P. mirabilis T-111; 0.1 µg/mL against M. morganii T-216; no more than 0.05 µg/mL with E. coli NIHJ; 0.1 µg/mL with C. freundii N-7 (setting [4]). In addition, the results for the MIC against E. coli TK-111 and in the data set with S. marcescens W-134 were no more than 0.05 µg/mL and 0.2 µg/mL, respectively.

Regarding `CC1COc2c(C3(N)CC3)c(F)c(F)c3c(=O)c(C(=O)O)cn1c23.Cl` (stereo not shown) [Test Compound 3, 10-(1-Aminocyclopropyl)-8,9-difluoro-3-methyl-7-oxo-2,3-dihydro-7H-pyrido[1,2,3-de][1,4]benzoxazine-6-carboxylic acid hydrochloride], the MIC against K. pneumoniae Y-4* (20 h) was 0.39 µg/mL; in the data set on P. aeruginosa GN-918* (setting [2]), 0.78 µg/mL; in the data set with P. mirabilis T-111 it was 0.2 µg/mL; against M. morganii T-216 it was no more than 0.05 µg/mL; with E. coli NIHJ, no more than 0.05 µg/mL; in the data set on C. freundii N-7 (setting [4]) it was 0.2 µg/mL. The MIC in the data set with E. coli TK-111 is no more than 0.05 µg/mL; with S. marcescens W-134 it was 0.2 µg/mL.

As for `CC1COc2c(C3(N)CC3)c(F)c(O)c3c(=O)c(C(=O)O)cn1c23.Cl` (stereo not shown) [Test Compound 4, 10-(1-Aminocyclopropyl)-9-fluoro-8-hydroxy-3-methyl-7-oxo-2,3-dihydro-7H-pyrido[1,2,3-de][1,4]-benzoxazine-6-carboxylic acid hydrochloride], the MIC in the data set with K. pneumoniae Y-4* (20 h) was 0.39 µg/mL; in the data set on P. aeruginosa GN-918* (setting [2]), 0.78 µg/mL; in the data set on P. mirabilis T-111, 0.2 µg/mL; with M. morganii T-216, no more than 0.05 µg/mL; with E. coli NIHJ, no more than 0.05 µg/mL; against C. freundii N-7 (N7, 20 h), 0.39 µg/mL. Further, the results for the MIC with E. coli TK-111 and with S. marcescens W-134 were no more than 0.05 µg/mL and 0.2 µg/mL, respectively.

As for `C[C@H]1COc2c(C3(N)CC3)c(F)cc3c(=O)c(C(=O)O)cn1c23.Cl` [Test Compound 5, (S)-10-(1-aminocyclopropyl)-9-fluoro-3-methyl-7-oxo-2,3-dihydro-7H-pyrido[1,2,3-de][1,4]benzoxazine-6-carboxylic acid hydrochloride], the MIC was no more than 0.05 µg/mL in the data set with K. pneumoniae Y-4* (setting [3]); 0.1 µg/mL in the data set on P. aeruginosa GN-918* (setting [2]); no more than 0.05 µg/mL against P. mirabilis T-111; no more than 0.05 µg/mL in the data set on M. morganii T-216; no more than 0.05 µg/mL against E. coli NIHJ; no more than 0.05 µg/mL with C. freundii N-7 (setting [4]). Besides, the MIC in the data set with E. coli TK-111 and with S. marcescens W-134 was no more than 0.05 µg/mL throughout. Also, the LD50 in data set [1] was greater than 1000 mg/kg.

On to `Cl.NC1(c2c(F)cc3c(=O)c(C(=O)O)cn4c3c2OCC4CF)CC1` (stereo not shown) [Test Compound 6, 10-(1-Aminocyclopropyl)-9-fluoro-3-fluoromethyl-7-oxo-2,3-dihydro-7H-pyrido[1,2,3-de][1,4]benzoxazine-6-carboxylic acid hydrochloride], for which the MIC is 0.2 µg/mL in the data set on K. pneumoniae Y-4* (setting [3]); 0.2 µg/mL in the data set on P. aeruginosa GN-918* (setting [2]); 0.1 µg/mL against P. mirabilis T-111; no more than 0.05 µg/mL in the data set on M. morganii T-216; no more than 0.05 µg/mL against E. coli NIHJ; 0.1 µg/mL in the data set on C. freundii N-7 (setting [4]). In addition, the MIC with E. coli TK-111 was no more than 0.05 µg/mL; in the data set on S. marcescens W-134, 0.1 µg/mL.

As for `CC[C@H]1COc2c(C3(N)CC3)c(F)cc3c(=O)c(C(=O)O)cn1c23.Cl` [Test Compound 7, (S)-10-(1-aminocyclopropyl)-3-ethyl-9-fluoro-7-oxo-2,3-dihydro-7H-pyrido[1,2,3-de][1,4]benzoxazine-6carboxylic acid hydrochloride], the minimum inhibitory concentration (MIC) was 0.2 µg/mL in the data set on K. pneumoniae Y-4* (setting [3]); 0.2 µg/mL with P. aeruginosa GN-918* (setting [2]); 0.2 µg/mL against P. mirabilis T-111; no more than 0.05 µg/mL against M. morganii T-216; no more than 0.05 µg/mL against E. coli NIHJ; 0.1 µg/mL in the data set on C. freundii N-7 (setting [4]). Further, the MIC against E. coli TK-111 is no more than 0.05 µg/mL; against S. marcescens W-134, 0.1 µg/mL.

In the case of `Br.C=C1COc2c(C3(N)CC3)c(F)cc3c(=O)c(C(=O)O)cn1c23` [Test Compound 8, 10-(1-Aminocyclopropyl)-9-fluoro-3-methylene-7-oxo-2,3-dihydro-7H-pyrido[1,2,3-de][1,4]benzoxazine-6-carboxylic acid hydrobromide], the MIC came to 0.2 µg/mL with K. pneumoniae Y-4* (setting [3]); 0.39 µg/mL in the data set with P. aeruginosa GN-918* (GN918, 20 h); 0.39 µg/mL in the data set with P. mirabilis T-111; 0.1 µg/mL in the data set with M. morganii T-216; 0.1 µg/mL with E. coli NIHJ; 0.1 µg/mL with C. freundii N-7 (setting [4]). Moreover, the MIC in the data set with E. coli TK-111 was no more than 0.05 µg/mL; against S. marcescens W-134, 0.2 µg/mL.

As for `NC1(c2c(F)cc3c(=O)c(C(=O)O)cn4c3c2OCC42CC2)CC1` [Test Compound 9, 10'-(1-Aminocyclopropyl)-9'-fluoro-7+-oxospiro{cyclopropane-1,3'(2'H)-[7H]-pyrido[1,2,3-de][1,4]benzoxazine}-6'-carboxylic acid hydrochloride], the MIC in the data set on K. pneumoniae Y-4* (20 h) was 0.39 µg/mL; in the data set on P. aeruginosa GN-918* (GN918, 20 h) it was 0.39 µg/mL; in the data set on P. mirabilis T-111, 0.39 µg/mL; against M. morganii T-216, 0.1 µg/mL; in the data set on E. coli NIHJ, 0.1 µg/mL; in the data set on C. freundii N-7 (setting [4]), 0.2 µg/mL. Also, the MIC against E. coli TK-111 is no more than 0.05 µg/mL; with S. marcescens W-134 it was 0.2 µg/mL.

As for `CC1CC1(N)c1c(F)cc2c(=O)c(C(=O)O)cn3c2c1OC[C@@H]3C.Cl` (stereo partly drawn) [Test Compound 10, (S)-10-(1-amino-2-methylcyclopropyl)-9-fluoro-3-methyl-7-oxo-2,3-dihydro-7H-pyrido[1,2,3-de][1,4]-benzoxazine-6-carboxylic acid hydrochloride], the MIC in the data set with K. pneumoniae Y-4* (setting [3]) is 0.2 µg/mL; with P. aeruginosa GN-918* (setting [2]), 0.2 µg/mL; in the data set on P. mirabilis T-111, 0.2 µg/mL; in the data set on M. morganii T-216, no more than 0.05 µg/mL; with E. coli NIHJ, no more than 0.05 µg/mL; with C. freundii N-7 (setting [4]), no more than 0.05 µg/mL. Further, the results for the MIC with E. coli TK-111 and in the data set on S. marcescens W-134 were no more than 0.05 µg/mL and 0.1 µg/mL, respectively.

As to `CNC1(c2c(F)cc3c(=O)c(C(=O)O)cn4c3c2OC[C@@H]4C)CC1.Cl` [Test Compound 11, (S)-10-[1-(N-methylamino)cyclopropyl]-9-fluoro-3-methyl-7-oxo-2,3-dihydro-7H-pyrido[1,2,3-de][1,4]-benzoxazine-6-carboxylic acid hydrochloride], the MIC is 0.1 µg/mL in the data set with K. pneumoniae Y-4* (setting [3]); 0.2 µg/mL in the data set with P. aeruginosa GN-918* (setting [2]); 0.1 µg/mL in the data set on P. mirabilis T-111; no more than 0.05 µg/mL against M. morganii T-216; no more than 0.05 µg/mL in the data set with E. coli NIHJ; 0.1 µg/mL in the data set with C. freundii N-7 (setting [4]). The MIC in the data set with E. coli TK-111 is no more than 0.05 µg/mL; in the data set on S. marcescens W-134 it was 0.1 µg/mL.

By MIC is commonly meant the smallest concentration in the dilution series that meets the test's criterion for growth inhibition. For orientation: LD50 means the dose expected to kill half of the subjects tested.

The record behind these values is US4990508A, “Pyridone carboxylic acid derivatives and salts thereof, process for producing the same and antibacterial agents comprising the same” (Toyama Chemical Co., Ltd., priority 1988, dated 1991).
